The values below come from patent US20240294545A1 (CSPC Zhongqi Pharmaceutical Technology (Shijiazhuang) Co., …, priority 2020, published 2024).

Marks after values point to notes of the source that are not given here.

The subject of one assay is ATM-phosphorylated KAP1. Description: Intracellular ATM-phosphorylated KAP1 level, ICW assay in MCF7 cells. Format: cell-based, Human. Conditions: Homo sapiens, light or radiation study; MCF7 cells, 2 h compound, 10 Gy irradiation, further 1 h; read-out: pKAP1 IC50. The procedure: 4 Inhibition on Intracellular ATM-Phosphorylated KAP1 Level by the Compounds of the Present Disclosure: ICW Assay
• Cell: Human breast cancer cell line MCF7 • Materials and reagents:
4.2 Experimental Procedures
• (1) Cell inoculation • MCF7 cells were inoculated on a 384-well plate, 10000 cells/well (25 μL/well), and cultured overnight at 37° C. with 5% CO2. • (2) Activity detection • 1) The compound was formulated into a 100 mM solution with DMSO and then sequentially diluted with a gradient of 1:3 to yield a total of 10 concentration gradients, wherein the maximum concentration was 100 μM. • 2) 25 nL of each of the compound solutions with gradient concentrations prepared in step 1) was added to each well of the cell plate (Corning #356663) by using I-DOT One, resulting in a final concentration of 100 nM (maximum dose). • 3) The cell plate containing compound was incubated at 37° C. with 5% CO2 for 2 h. After 2 h, the cell plate was irradiated with a dose of 10 Gy, and then further incubated for 1 h. • 4) 25 μL of 8% paraformaldehyde was added to each well, followed by incubating at room temperature for 20 min. • 5) The 8% paraformaldehyde was discarded, followed by adding 0.1% TrintonX-100 and incubating at room temperature for 30 min. • 6) Odessey blocking buffer was added at 50 μL/well, followed by incubating at room temperature for 1.5 h. • 7) The Odessey blocking buffer was discarded, and then a primary antibody (Phospho-KAP1, 1:2000 dilution) was added, followed by incubating overnight at 4° C. • 8) The primary antibody was removed, followed by washing with PBS+0.1% Tween 20 for 5 times. • 9) DNA dye DRAQ5 coated with a second antibody (IRDye 800CW Goat anti-Rabbit, 1:4000 dilution) was added, followed by incubating at room temperature for 1 h. • 10) The second antibody was removed, followed by washing with PBS+0.1% Tween 20 for 5 times. • 11) PBS+0.1% Tween 20 was sucked off with Odyssey. • (3) Data analysis • 1) the relative ratio of Channel 800/Channel 700 for each well was detected. • 2) % of KAP1 phosphorylation was calculated according to the following formula:
% of KAP1 phosphorylation=[(Ratiocmpd−(Ratio)Positive)/((Ratio)Vehicle−(Ratio)Positive]*100 • (Ratio)Positive: the mean value of the test values of each positive control well in the test cell plate; • (Ratio)Vehicle: the mean value of the test values of each negative control well in the test cell plate. • 3) the IC50 of each compound was calculated and the dose-effect curve was plotted: % of KAP1 phosphorylation and log of compound's concentration were fit by using Graphpad 8.0 so as to calculate the IC50.
[formula] • X: log of compound's concentration • Y: % of KAP1 phosphorylation

Assay [1] relates to subcutaneous xenograft tumor of human colon cancer cell line HT-29. Description: HT-29 subcutaneous xenograft, combined with irinotecan liposome injection. It counts as in vivo, NU/NU mice. As to conditions: compound 25 mg/kg intragastric + irinotecan liposome 10 mg/kg ip. How it is done:
7 Efficacy Test of the Compounds of the Present Disclosure Combined with Irinotecan Liposome Injection on Inhibiting the Growth of Subcutaneous Xenograft Tumor of Human Colon Cancer Cell Line HT-29
7.1 Experimental Animals: NU/NU Mice, SPF, Female, 20 to 30 g.
Irinotecan liposome injection (HE072), 43 mg: 10 mL, milky white liquid, batch No. B37191202, provided by Preparation Research Institute 2 from CSPC Zhongqi Pharmaceutical Technology (Shijiazhuang) Co., Ltd., diluted to an appropriate concentration with 5% glucose injection while testing.
HT-29 cell, provided by Nanjing Kebai Biotechnology Co., Ltd.; 5A culture medium:fetal bovine serum=90%:10%, 37° C., 5% CO2.
NU/NU nude mice were subcutaneously inoculated with HT-29 human colon cancer cells. When the mean tumor volume reached about 170 mm^3 (9 days after inoculation), the animals were evenly divided into groups according to the tumor volume (d0), with 6 mice in each group. 10 mg/kg of HE072 was administered intraperitoneally once a week for 1 time. Vehicle control, 25 mg/kg of A-6, 25 mg/kg of A-46, and 25 mg/kg of AZD1390 were administered intragastrically once a day, from Monday to Thursday every week except Friday to Sunday, for 1 week (4 times). The tumor volume was measured twice a week, the body weight of mouse was weighed every day, and the data were recorded. The tumor volume (TV) was calculated according to the formula: TV=½×a×b2, wherein a and b represent the long and short diameters of tumor, respectively. Tumor growth inhibitory rate TGI (%)=[1−(Ti−T0)/(Vi−V0)]×100, wherein Ti represents the mean tumor volume of a given treatment group on a certain day; TO represents the mean tumor volume of this treatment group at the beginning of administration; Vi represents the mean tumor volume of the vehicle control group on a certain day (the same day as that in Ti); V0 represents the mean tumor volume of the vehicle control group at the beginning of administration. At the end of the test (d17), the animals were sacrificed, the tumors were stripped and weighed, and the tumor weight inhibitory rates were calculated.

Turning to `CC(C)n1c(=O)n(C)c2cnc3cc(F)c(-c4ccc(OCCCN5CCCCC5)nc4)cc3c21` [AZD1390, reference compound], in the assay with ATM-phosphorylated KAP1, the half-maximal inhibitory concentration (IC50) stood at 0.45 nM. In addition, in assay [1] (day 16), the “D 16 TGI” value turned out to be 89.6% and the “D 16 TV (MEAN ± SD)” value is reported as 244.2 ± 192.8***^### mm^3. Besides, in assay [1] (end of test), the Tumor weight amounted to 0.18 ± 0.18 g and the “Tumor weight inhibitory rate” value is reported as 74.7%.

Regarding `Cn1c(=O)n2c3c4c(c(-c5ccc(OCCCN6CCCCC6)nc5)c(F)cc4ncc31)NCC2(C)C` [Example A-193, 6-fluoro-2,10,10-trimethyl-7-(6-(3-(piperidin-1-yl)propoxy)pyridin-3-yl)-2,8,9,10-tetrahydro-1H-2,4,8,10a-tetraazanaphtho[2,1,8-cde]azulen-1(2H)-one], the IC50 with ATM-phosphorylated KAP1 is 1.75 nM.
